A value given as a limit tells only on which side of the number the result lay.

Experiment [1] deals with 14-3-3 proteins in A549 lysates. In words: Labeling of 14-3-3 proteins by BODIPY-modified peptides in A549 lysates (SDS-PAGE fluorescence, western blot). Type of experiment: binding. The conditions noted are these: BODIPY-labeled derivatives of the peptides; 1 µM (peptides 3, 8) or 0.25 µM (peptide 12), lysate […], 25 °C, 1 h or 22 h. The protocol:
A549 cells were obtained from biological services of the Weizmann Institute. For experiments in lysates, A549 cells were grown in DMEM + FBS. The cells were washed with PBS, scraped from the plate and centrifuged 200 × g for 5 min. […] Cells were incubated in the lysis buffer and centrifuged at 21,000 × g for 10 min at 4 °C. The protein concentration was estimated using BCA, and the lysate was diluted to 1.9 mg/ml in the lysis buffer. […] Then, 13.3 μl of 4X LDS samples buffer with 20 mM DTT was added and the samples were heated for 10 min at 70 °C. The samples were loaded on Bis-Tris gradient gels (4-20%, Genscript) and run using Tris-MOPS buffer at 60 mA/200 V. […] Images were processed and generated using ImageLab. […] Afterwards the gel was directly imaged in ChemiDoc. page 8: Supplementary Figure 7. Peptide binding selectivity in cell lysates and media. a) Raw images for the western blot experiment depicted in figure 5. Experiments was repeated 3 times. Top row: images for experiment done on A549 lysates. Bottom row: Images from extracellular medium. b) Direct gel imaging for experiment in which 1 μ[…] lysates at the indicated concentrations for 22 hours at 25°C. The same amount of lysate was loaded in each lane (28.5 μg). The intense fluorescence at the bottom comes from unbound peptide.
For orientation: A western blot detects proteins with antibodies after separation by electrophoresis.

Experiment [2] has as its system 14-3-3 proteins in extracellular medium of A549 cells. Nature of the experiment: Detection of 14-3-3 proteins by BODIPY-modified peptides in extracellular medium of A549 cells. It counts as binding. The conditions noted are these: BODIPY-labeled derivatives; concentrated serum-free medium of A549 cells grown 24 h or 48 h. As to the method:
For experiments in medium, after growing the cells they were transferred to DMEM without FBS, followed by incubation for either 24 h or 48 h. After the incubation, 8.5 ml of the medium was filtered through a 0.2 µm filter, concentrated using a centrifugal concentrator (vivaspin, cutoff 8000–10,000 Da) to ~200 µl, and diluted to 8 ml using HEPES 50 mM pH = 7.5, 150 mM NaCl. This was followed by 2 additional rounds of dilution and concentration to ~200 µl. The samples were then diluted to 300 µl with IGEPAL added to 1% as well as protease inhibitors and PhosStop. 38 µl samples from the medium were then incubated with the peptides and analyzed as performed for the lysate, with 15 s exposure for fluorescence and 50 second exposure for chemiluminescence.

A further experiment deals with 14-3-3σ. Nature of the experiment: Covalent labeling of 14-3-3σ by peptides, intact protein LC/MS. As to conditions: 5 µM peptide, 2 µM 14-3-3σ; for 14-3-3σ full peptide adduct (degree of labeling): 25 °C; for degree of labeling of 14-3-3σ: 37 C. It counts as binding, human. As to the method:
The LC/MS runs for 14-3-3σ were performed on a Waters ACQUITY UPLC class H instrument, in positive ion mode using electrospray ionization. […] The column was held at 40 °C and the autosampler at 10 °C. […] The run flow was 0.4 mL/min. […] The MS data were collected on a Waters SQD2 detector with an m/z range of 2–3071.98 at a range of 900–1900 m/z. The desolvation temperature was 500 °C with a flow rate of 800 L/h. The voltages used were 1.00 kV for the capillary and 24 V for the cone. MassLynx version 4.2 was used to operate the LCMS and analyze the data. Raw data were processed using openLYNX and deconvoluted using MaxEnt with a range of 28,000: 34,000 Da and a resolution of 1 Da/channel. […] For analysis, 24 μl sample was mixed with 6 μl of 2.4% formic acid in water and then 10 μl were injected to intact protein LCMS.

Experiment [3] addresses human 14-3-3σ with an N-terminal His6-tag (human) (UniProt P31947).
Sequence of UniProt P31947 (P31947 whole entry): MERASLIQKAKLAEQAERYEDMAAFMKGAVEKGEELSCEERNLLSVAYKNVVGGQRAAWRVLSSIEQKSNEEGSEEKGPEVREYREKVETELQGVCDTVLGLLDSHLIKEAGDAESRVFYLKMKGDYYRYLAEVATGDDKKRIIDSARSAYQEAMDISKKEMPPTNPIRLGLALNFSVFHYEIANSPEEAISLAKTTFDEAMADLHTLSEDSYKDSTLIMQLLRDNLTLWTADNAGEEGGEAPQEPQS
For experiment [4] the target is unchanged. The source holds these as a separate data set.
Experiment [5] shares this target. This is another data set of the same source.

On to “Ac-RAH-(pT)-SPASL-X-NH2 [Peptide 12, reference compound]”, for which, in experiment [1], the “labeling of proteins in A549 lysates” value was “selectively labeled 14-3-3σ and generated a single fluorescent band”. The “detection of 14-3-3 proteins in extracellular medium” value in experiment [2] is 14-3-3σ was not detected.

Regarding “Ac-RAH-(pT)-(mC)-PASLQ-NH2 [Peptide 8, Methacrylate phosphopeptide derived from YAP-1 (PDB 3MHR)]”, the “labeling of proteins in A549 lysates” value in experiment [1] is listed as “formed two main bands”. Also, the “14-3-3σ full peptide adduct (degree of labeling)” value with 14-3-3σ (intact protein LC/MS, time 0 h) stood at 0; with 14-3-3σ (time 1 h (60 min)), 34.14; in the experiment on 14-3-3σ (time 2.5 h (150 min)), 55.96; in the experiment on 14-3-3σ (time 5 h (300 min)), 74.24; with 14-3-3σ (time 24 h (1440 min)) it was 86.25. In addition, the “degree of labeling of 14-3-3σ” value in the experiment on 14-3-3σ (LC/MS, time 0 h) came to 0; in the experiment on 14-3-3σ (time 35 min), 53.08; in the experiment with 14-3-3σ (time 70 min), 70.97; in the experiment on 14-3-3σ (time 1.75 h), 80.85; in the experiment with 14-3-3σ (time 4 h), 93.18; in the experiment on 14-3-3σ (time 8 h), 91.76. Besides, the “increase of the rate of labeling at 37 °C” value in the experiment with 14-3-3σ (37 °C versus 25 °C) is given as “roughly 4 fold”.

Take “Peptide 11 (Ac-RAH-(pT)-SPAS-(mC)-Q-NH2)”: in experiment [3], the percent covalent labeling (overnight, 200 µM peptide) was found to be 57%. In experiment [4], this substance showed a percent covalent labeling after 48 h of 100%. This substance returned a percent free 14-3-3σ remaining within 2.5 h in experiment [5] of less than 5%.

Take Peptide 3 (Ac-RSA-(pT)-(mC)-PSL-NH2): in experiment [3], the percent covalent labeling (overnight, 200 µM peptide) amounted to 51%. The percent covalent labeling after 48 h in experiment [4] was found to be 75%. Besides, in experiment [5], the percent covalent labeling within 5 h was determined as 60%.

Substance Peptide 8 (Ac-RAH-(pT)-(mC)-PASLQ-NH2) yielded a percent covalent labeling (overnight, 200 µM peptide) in experiment [3] of 35%. The same substance had a percent covalent labeling after 48 h in experiment [4] of 90%. The substance also returned a percent covalent labeling within 5 h in experiment [5] of 80%.

For the origin of these results see article PMC10692228, “A simple method for developing lysine targeted covalent protein reagents” (Nature Communications, 2023).
